Key:
NPD1 synthesis = NPD1 synthesis and release from polarized primary human RPE cell monolayers (lipidomic analysis); assay type: cell-based
Description: Human RPE cells. Cultures of retinal pigment epithelial (RPE) cells were prepared. RPE cells were seeded onto Millicell-HA culture plate inserts (Millipore, Bradford, Mass.), placed in 24-well plates, and allowed to reach confluence. Consent for use of tissue for research was obtained in compliance with Federal and State law and institutional regulations. Cultures were maintained in Chee's essential replacement medium until the experiments were performed as described in J. Hu and D. Bok (2001) Mol Vis 7:14-19. The medium includes Eagle's minimal essential medium with calcium (MEM, Irvine Scientific, Irvine, Calif.), 1% heat-inactivated calf serum (JRH Bioscience, Lennexo, Kans.), amino acid supplements, and 1% bovine retinal extract. The Millicell-HA filter inserts allow separate manipulation of the culture media bathing the apical and basal surfaces of the RPE monolayer and measurement of the transepithelial resistance (TER), which provides a measure of cell differentiation and confluency. Cultures were used for experiments once they developed a TER of at least 400 Ω·cm^2, as measured by an Epithelial Volt-ohmmeter (EVOM, World Precision Instruments, New Haven, Conn.).
Exposure of RPE cells to growth factors. […] […] The lower chamber was filled with 500 μl media (bathing the basal cell monolayer surface) containing 0.1% HSA. Cells were incubated for 72 hours, then apical and basal media were removed and collected for analysis. After allowing the cells to rest for at least 72 hours on fresh media, the experiments were repeated.
Lipidomic analysis. Human RPE primary cell cultures or ARPE-19 cells were separated from culture media and washed with 1 ml PBS. After addition of 1 ml methanol, cells were scraped from plates or millicell membranes and collected for lipid extraction. Media was spun-down to separate cell debris, then 350 μl were collected in 1 ml of cold chloroform:methanol (1:1). Protein precipitates were then separated by centrifugation at 1500×g (5 min, 4° C.). Lipid extracts were collected, and kept under nitrogen at −80° C. until solid-phase purification; extracts were pre-equilibrated at pH 3.0 in 10% methanol/water, then loaded to 500 mg C18 columns (Varian, Inc., Palo Alto, Calif.), and eluted with 1% methanol/ethyl acetate. Eluates were concentrated on a N2 stream evaporator. Samples were loaded to a liquid chromatograph-tandem mass spectrometer (LC-TSQ Quantum, Thermo-Finnigan; Thermo Fisher Scientific, Waltham, Mass.) installed with a Biobasic-AX column (Thermo-Hypersil-Keystone, Thermo Fisher Scientific, Waltham, Mass.) (100 mm\2.1 mm, 5-μm particle sizes), and eluted in a linear gradient [100% solution A (40:60:0.01 methanol/water/acetic acid pH 4.5) to 100% solution B (99.99:0.01 methanol/acetic acid)], at a flow rate of 300 μl/min for 30 minutes. LC effluents were diverted to an electro-spray-ionization probe (ESI) on a TSQ Quantum (Thermo-Finnigan, Thermo Fisher Scientific, Waltham, Mass.) triple quadrupole mass spectrometer. NPD1 and resolving D1 were obtained by biogenic synthesis as described in N. G. Bazan, D. L. Birkle, and T. S. Reddy (1984) Biochem Biophys Res Commun. 125:741-74, and V. L. Marcheselli et al. (2003) J. Biol. Chem. 278:43807-43817. Erratum in: (2003) J Biol Chem 278:51974. Other lipid standards (Cayman Chem. Ann Arbor, Mich.) were used for tuning and optimization and to create calibration curves. The instrument was set on full-scan mode, to detect parent ions, and selected reaction mode (SRM) for quantitative analysis, to detect product ions, simultaneously. The selected parent/product ions (m/z) and collision energy (v) obtained by running on negative ion detection mode were: 359.2/153.1/20 for NPD1, 343.2/281.2/18 for resolving D1, 351.2/195.0/22 for 20HO-LTB4 (used as internal standard), 327.2/283.3/16 for DHA, 311.3/267.3/20 Arachidonic Acid-d8 (used as internal standard, IS).
Neurotrophins activated NPD1 synthesis in cultured primary human RPE cells. […]

caspase-3 = test: Caspase-3 cleavage in A2E-exposed ARPE-19 cells (Western blot); assay type: cell-based, human; settings: NPD1 50 nM
Description: (§1) Analysis of Bcl-2 and caspase-3 cleavage. Bcl-2 protein and caspase-3 cleavage were analyzed by Western-blot analysis. Also, ARPE-19 cells, stably transfected with a lentivirus construct containing the […] caspase 3 cleavage sequence, were used. In short, 15-20 μg equivalent of each cell extract were subjected to electrophoresis on an 8-16% gel (Invitrogen Corporation, Carlsbad, Calif.) at 125 volts for 2 hr. The proteins were transferred to nitrocellulose membranes at 30 volts for 70 minutes at 4° C. The membranes were probed with primary antibodies against Bcl-2 (Santa Cruz Biotechnology, Inc., Santa Cruz, Calif.) and cleaved caspase-3 (Asp-175) (Cell Signaling) at room temperature and treated for 20 minutes with the secondary antibody, goat anti-rabbit IgG: horseradish peroxidase, and horseradish peroxidase-conjugated anti-biotin antibody, then proteins were detected by using an ECL kit (Amersham Biosciences, Buckinghamshire, United Kingdom).
(§2) Caspase cleavage and Bcl-2 changes triggered by A2E are restored by NPD1. […] NPD1 (50 nM) counteracted the effect of A2E (see Materials and Methods). Data is an average of relative density detection±SEM of six individuals. […] These findings indicate that NPD1 protects the RPE against A2E-induced apoptosis at the pre-mitochondrial level of the apoptosis cascade by altering Bcl-2 balance. […]

ARPE-19 cells [1] = test: Serum starvation/H2O2/TNFα oxidative stress-induced apoptosis in ARPE-19 cells (Hoechst staining); assay type: cell-based, human; settings: NPD1 added eight hours after triggering oxidative stress
Description: Exposure of ARPE-19 cells to growth factors. Cells at 75-80% confluence (72 hr growth in DMEM/F12+10% FBS) were serum-starved for 2 hr before exposure to growth factors. The serum-starved cells were treated with TNF-α (Sigma-Aldrich Corporation, St. Louis, Mo.) (10 ng/ml) and H2O2 (600 μM) to induce oxidative stress and challenged with increasing concentrations (10, 30, 50 nM) and PEDF (Chemicon International, Temecula, Calif.) (50 ng/ml) simultaneously with oxidative stress for 4 hr before harvesting for protein analysis. Cell extracts were made and protein concentrations were adjusted by Bio-Rad protein reagent and used for Western-blot analysis. […] Cells were analyzed to detect Hoechst-positive apoptotic cells.
Hoechst Staining. […] Cells were washed once with PBS and photographed using a Nikon DIAPHOT 200 microscope with fluorescence optics. Images were recorded by a Hamamatsu Color Chilled 3CCD camera and PHOTOSHOP 5.0 software (Adobe Systems, Mountain View, Calif.).
A2E, a lipofusin component, accumulates in the RPE during aging, and, in an exaggerated manner, in age-related macular degeneration (AMD) and Stargardt macular dystrophy (an early onset form of AMD). […] Hoechst 33258 was analyzed at 15 hours. […]

Bax = Bax expression in A2E-exposed ARPE-19 cells (Western blot); assay type: cell-based, human; settings: NPD1 50 nM
A2E oxiranes (epoxides) = test: A2E conversion to A2E oxiranes (epoxides) in ARPE-19 cells, LC-MS-MS; assay type: cell-based, human; settings: NPD1 50 nM; light and oxygen
Description: (§3) A2E, a lipofusin component, accumulates in the RPE during aging, and, in an exaggerated manner, in age-related macular degeneration (AMD) and Stargardt macular dystrophy (an early onset form of AMD). As a consequence, RPE apoptosis precedes the demise of photoreceptors. […] Seventy-two (72) hours after plating, ARPE-19 cells were serum starved for 4 hours. A2E (20 μM) was added in the presence of 430 nM light and O2 (see Materials and Methods). Other cells were exposed instead to H2O2/TNFα. NPD1 was added prior to, or at different times after, A2E or H2O2/TNFα, up to 12 hours. Time of NPD1 addition is indicated by black arrows on FIG. 1A. Hoechst 33258 was analyzed at 15 hours. FIG. 1B illustrates the appearance of Hoechst 33258 positive cells upon exposure to A2E and the effect of NPD1. FIG. 1C is similar to FIG. 1B, except that H2O2/TNFα was used to trigger oxidative stress. FIG. 1D depicts the formation of oxiranes (epoxides) upon exposure of ARPE-19 cells to A2E in the presence of O2 and 430 nM light for 15 minutes followed by 60 minutes incubation in the dark. […]
To study the mechanism of NPD1-mediated RPE protection against A2E oxidative stress, the possibility that A2E conversion to A2E oxiranes (epoxides) may be the target of NPD1 was tested. […] Multiple oxiranes (epoxides), up to nonaoxiranes, were detected by MS-MS in ARPE-19 cells exposed to light and oxygen (FIG. 1D).

Bcl-2 = Bcl-2 expression in A2E-exposed ARPE-19 cells (Western blot); assay type: cell-based, human; settings: NPD1 50 nM
Description: as §1, §2

ARPE-19 cells [2] = test: A2E-induced apoptosis in ARPE-19 cells (Hoechst 33258 staining); assay type: cell-based, human
Description: Hoechst Staining. ARPE-19 cells were incubated with 2 μM Hoechst reagent dissolved in Lock's solution (Promega Corporation, Madison. Wis.) at 37° C. for 45 minutes before imaging. Cells were washed once with PBS and photographed using a Nikon DIAPHOT 200 microscope with fluorescence optics. Images were recorded by a Hamamatsu Color Chilled 3CCD camera and PHOTOSHOP 5.0 software (Adobe Systems, Mountain View, Calif.).
as §3, with “stress.” for “stress. FIG. 1D depicts the formation of oxiranes (epoxides) upon exposure of ARPE-19 cells to A2E in the presence of O2 and 430 nM light for 15 minutes followed by 60 minutes incubation in the dark.”

ARPE-19 cells [3] = test: Cell viability using calcein (AM), ethidium homodimer and phase contrast microscopy after oxidative stress; assay type: cell-based, human; settings: added up to 15 hr after triggering oxidative stress; data not shown
Description: A2E-triggered oxidative stress precedes cell death. Since oxidative stress and/or inflammatory signaling are involved in early stages of retinal degenerations, oxidative stress, triggered by another experimental condition, serum starvation/H2O2/TNFα was explored (FIG. 1C). NPD1 also exerted protection in this experimental condition. […] What was surprising was the extended time window. […] (Data not shown)

[4] = increasing concentrations, 72 hr

CC/C=C\C/C=C\C/C=C\C/C=C\C/C=C\C/C=C\CCC(=O)O [DHA, docosahexaenoic acid]
Cellular NPD1 content (percentile distribution of total NPD1) (NPD1 synthesis; 200 nM DHA (25% when no DHA was added)): 7% | DHA concentration at which NPD1 in the apical media reaches a maximum (NPD1 synthesis; DHA treatment on the apical media): 50 nM

CC/C=C\C[C@H](O)\C=C/C=C/C=C/[C@H](O)C/C=C\C/C=C\CCC(=O)O [NPD1, Neuroprotectin D1]
Effect on A2E-enhanced caspase-3 cleavage (caspase-3): counteracted A2E-enhanced caspase-3 cleavage | Protection against H2O2/TNFα oxidative stress-induced apoptosis, delayed addition (ARPE-19 cells [1]): resulted in protection | Effect on Bax expression (Bax): showed a tendency to decrease Bax expression | Effect on A2E conversion to A2E oxiranes (epoxides) (A2E oxiranes (epoxides)): did not affect this conversion | Effect on Bcl-2 protein expression (Bcl-2): increased Bcl-2 protein expression | Cytoprotection against A2E-induced apoptosis (Hoechst 33258 positive cells) (ARPE-19 cells [2]; A2E 20 μM, 430 nm light and O2, Hoechst at 15 hours): cytoprotective | Protection against A2E-induced apoptosis, delayed addition (ARPE-19 cells [2]; NPD1 50 nM added 6 hours after A2E): ensures protection | Protection of cell viability (calcein AM, ethidium homodimer, phase contrast) (ARPE-19 cells [3]): showed protection

CCCCC/C=C\C/C=C\C/C=C\C/C=C\CCCC(=O)O [arachidonic acid, reference compound]
NPD1 synthesis and release, fatty acid added to the apical medium (NPD1 synthesis; 72 hr, DHA 0 to 200 nM, arachidonic acid under similar conditions): failed to induce NPD1 synthesis | NPD1 synthesis, arachidonic acid in the presence of PEDF (NPD1 synthesis; added arachidonic acid with PEDF): did not stimulate NPD1 synthesis

B1: CNTF: ciliary neurotrophic factor, a neurotrophin (protein, UniProt P26441 1-200, looked up)
Ciliary neurotrophic factor: MAFTEHSPLTPHRRDLCSRSIWLARKIRSDLTALTESYVKHQGLNKNINLDSADGMPVASTDQWSELTEAERLQENLQAYRTFHVLLARLLEDQQVHFTPTEGDFHQAIHTLLLQVAAFAYQIEELMILLEYKIPRNEADGMPINVGDGGLFEKKLWGLKVLQELSQWTVRSIHDLRFISSHQTGIPARGSHYIANNKKM
NPD1 release, neurotrophin added to the apical medium (NPD1 synthesis; [4]): concentration-dependent increases in NPD1 release only on the apical side | NPD1 release, neurotrophin added to the basal medium (NPD1 synthesis; [4]): much less NPD1 release on the apical side

From patent US20100303887A1, “DHA and PEDF, a Therapeutic Composition for Nerve and Retinal Pigment Epithelial Cells” (priority 2007, published 2010)
